Where “and” joins values, the source holds several entries; their conditions need not be identical. Identical values can stand only once.
Target: Dihydroorotate dehydrogenase (quinone), mitochondrial (Homo sapiens, UniProt Q02127)
Assay: DHODH enzymatic assay
Description: To detect DHODH enzyme activities, dichloroindophenol (DCIP) is added as the final electron acceptor in the assay. DCIP can accept electrons from the reduced coenzyme Q generated in the assay, or from dihydroorotate (DHO) via FMN by binding presumably to the ubiquinone pocket. DCIP solutions are blue, with an intense absorbance around 600 nm, but becomes colorless upon reduction (J. Biol. Chem. (1986) 261, 11386). The assay buffer contained […], pH 7.5, 150 mM NaCl, 0.5 mM EDTA, and 0.1% Triton X-100 in MilliQ water. Substrate consisting of 20 mM DHO, 5mM CoQ6, and 1mM DCIP in assay buffer, initiates the reaction. The assay is run in end-point mode by quenching the reaction with the potent DHODH inhibitor brequinar. Absorbance measurements were obtained using the BMG Phera Star plate-reading spectrophotomer. Purified human DHODH was purchased from Proteros (cat. No. PR-0044). Chemicals were purchased from Sigma-Aldrich, Teknova, and Avanti Polar Lipids. Liquid handling was performed using Labcyte Echo and Formulatrix Tempest.

Dihydroorotate dehydrogenase (quinone), mitochondrial, sequence (Q02127 whole entry): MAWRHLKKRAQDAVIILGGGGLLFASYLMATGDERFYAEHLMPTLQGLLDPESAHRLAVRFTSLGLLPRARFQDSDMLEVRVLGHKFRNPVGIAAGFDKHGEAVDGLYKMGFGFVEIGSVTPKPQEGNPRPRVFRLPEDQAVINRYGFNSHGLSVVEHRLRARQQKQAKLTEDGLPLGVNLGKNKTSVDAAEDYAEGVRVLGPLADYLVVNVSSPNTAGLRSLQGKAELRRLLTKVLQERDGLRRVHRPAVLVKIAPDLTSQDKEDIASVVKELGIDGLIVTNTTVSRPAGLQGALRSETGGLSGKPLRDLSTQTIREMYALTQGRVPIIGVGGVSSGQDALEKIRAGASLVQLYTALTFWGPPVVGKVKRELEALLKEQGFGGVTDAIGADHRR

`Cc1ccccc1-n1cc(C(C)C)c2cc(-c3nc(C(C)O)n(C)n3)c(F)cc2c1=O` (racemic) [WO2022070068, Example 5] was tested. Which IC50 did it give?
The IC50 was 1.1 nM.

Which IC50 does the source give for `Cc1ccccc1-n1cc(C(C)C)c2cc(-c3cnc(C4CC4)cn3)c(F)cc2c1=O` [WO2022070068, Example 1] here?
Its IC50 is 2.6 nM.

`Cc1ccccc1-n1cc(C(C)C)c2cc(-c3ccc(C)c(N)n3)c(F)cc2c1=O` [WO2022070068, Example 2] was tested. Which IC50 did it give?
Its IC50 is 0.18 nM.

Which IC50 does the source give for `Cc1cnc(-c2cc3c(C(C)C)cn(-c4ccccc4C)c(=O)c3cc2F)cc1N` [WO2022070068, Example 3] here?
Its IC50 is 3.6 nM.

With `CC(=O)c1nc(-c2cc3c(C(C)C)cn(-c4ccccc4C)c(=O)c3cc2F)nn1C` [WO2022070068, Example 6] as the compound, how does the IC50 read?
Its IC50 is 1.7 nM.

For `Cc1ccccc1-n1cc(C(C)C)c2cc(-c3cn(C)c(CO)n3)c(F)cc2c1=O` [WO2022070068, Example 8], which IC50 is on record?
Its IC50 is 1.2 nM.

`Cc1ccccc1-n1cc(C(C)C)c2cc(-c3nc(CO)n(C)n3)c(F)cc2c1=O` [WO2022070068, Example 9] was tested. Which IC50 did it give?
The IC50 was 2.6 nM.

For `Cc1ccccc1-n1cc(C(C)C)c2cc(-c3cn(C)c([C@H](C)O)n3)c(F)cc2c1=O` [WO2022070068, Example 10], which IC50 is on record?
The IC50 was 0.73 nM.

`Cc1ccccc1-n1cc(C(C)C)c2cc(-c3cn(C)c([C@@H](C)O)n3)c(F)cc2c1=O` [WO2022070068, Example 11] was tested. Which IC50 did it give?
Its IC50 is 0.51 nM.

`Cc1ccccc1-n1cc(C(C)C)c2cc(-c3nc([C@@H](C)O)n(C)n3)c(F)cc2c1=O` [WO2022070068, Example 12] was tested. Which IC50 did it give?
The IC50 was 1.6 nM and 2 nM.

For `Cc1ccccc1-n1cc(C(C)C)c2cc(-c3nc([C@H](C)O)n(C)n3)c(F)cc2c1=O` [WO2022070068, Example 13], which IC50 is on record?
Its IC50 is 0.48 nM and 1.1 nM.

How did the IC50 turn out when `Cc1ccccc1-n1nc(C(C)C)c2cc(-c3cn(C)c(C(C)(C)O)n3)c(F)cc2c1=O` [WO2022070068, Example 14] was run?
The IC50 was 0.45 nM.

For `Cc1ccccc1-n1nc(C(C)C)c2cc(-c3cn(C)c([C@@H](C)O)n3)c(F)cc2c1=O` [WO2022070068, Example 15], which IC50 is on record?
Its IC50 is 2.6 nM.

Which IC50 does the source give for `Cc1n[nH]c(Cl)c1-n1cc(C(C)C)c2cc(-c3cn(C)c(C(C)(C)O)n3)c(F)cc2c1=O` [WO2022070068, Example 16] here?
Its IC50 is 0.51 nM.

With `Cc1n[nH]c(Cl)c1-n1cc(C(C)C)c2cc(-c3nc(C(C)(C)O)n(C)n3)c(F)cc2c1=O` [WO2022070068, Example 17] as the compound, how does the IC50 read?
The IC50 was 0.71 nM.

How did the IC50 turn out when `Cc1ccnc(Cl)c1-n1cc(C(C)C)c2cc(-c3cn(C)c(C(C)(C)O)n3)c(F)cc2c1=O` [WO2022070068, Example 18] was run?
Its IC50 is 2 nM.

For `Cc1ccnc(Cl)c1-n1cc(C(C)C)c2cc(-c3nc(C(C)(C)O)n(C)n3)c(F)cc2c1=O` [WO2022070068, Example 19], which IC50 is on record?
Its IC50 is 2.5 nM.

For `CCn1nc(-c2cc3c(C(C)C)cn(-c4ccccc4C)c(=O)c3cc2F)nc1C(C)(C)O` [WO2022070068, Example 20], which IC50 is on record?
Its IC50 is 27 nM.

Which IC50 does the source give for `Cc1ccccc1-n1cc(C(C)C)c2cc(-c3cn(C)c(C(C)(C)O)n3)c(F)cc2c1=O` [WO2022070068, Example 23] here?
The IC50 was 0.38 nM and 0.54 nM.

For `CCn1nc(-c2cc3c(C(C)C)cn(-c4ccccc4C)c(=O)c3cc2F)nc1C(C)=O` [WO2022070068, Example 24], which IC50 is on record?
Its IC50 is 6.2 nM.

With `COc1cc(-n2cc(C(C)C)c3cc(-c4cn(C)c(C(C)(C)O)n4)c(F)cc3c2=O)c(C)cn1` [WO2022070068, Example 25] as the compound, how does the IC50 read?
Its IC50 is 1.2 nM.

How did the IC50 turn out when `COc1cc(-n2cc(C(C)C)c3cc(-c4nc(C(C)(C)O)n(C)n4)c(F)cc3c2=O)c(C)cn1` [WO2022070068, Example 26] was run?
Its IC50 is 1.2 nM.

How did the IC50 turn out when `Cc1ccc(Cl)c(-n2cc(C(C)C)c3cc(-c4cn(C)c(C(C)(C)O)n4)c(F)cc3c2=O)n1` [WO2022070068, Example 27] was run?
Its IC50 is 1.4 nM.

Which IC50 does the source give for `CCn1nc(-c2cc3c(C(C)C)cn(-c4ccccc4C)c(=O)c3cc2F)nc1C(C)O` (stereo not given) [WO2022070068, Example 28] here?
Its IC50 is 19 nM.

For `Cc1ccccc1-n1cc(C(C)C)c2cc(-c3nc(C(C)(C)O)n(C)n3)c(F)cc2c1=O` [WO2022070068, Example 29], which IC50 is on record?
Its IC50 is 0.57 nM and 0.64 nM.

From BindingDB's records for patent WO2022070068 (JANSSEN BIOTECH, INC., 2022)
